Activity, inhibition and IC50 data for one compound are collected here from ChEMBL document CHEMBL3872242, “Anti-inflammatory tetraquinane diterpenoids from a Crinipellis species” (Bioorg Med Chem, 2017).

Data set [1] is described as follows: Effect on GAPDH mRNA expression in human MONO-MAC-6 cells at 3.31 to 16.54 uM preincubated for 1 hr followed by LPS/INF-gamma stimulation measured after 4 hrs by quantitative RT-PCR analysis. It counts as ADME, cell-based. The settings on record: mono-mac-6, 4 h.
Data set [2] relates to MONO-MAC-6. The data set is described as follows: Inhibition of LPS/INF-gamma induced CXCL10 promoter dependent transcription activity in human MONO-MAC-6 cells measured after 4 hrs by luciferase reporter gene assay. Format: functional. Background: In a reporter assay the amount or activity of a reporter protein is the signal.
Data set [3] concerns MONO-MAC-6. The data set is described as follows: Inhibition of IL-8 mRNA expression in LPS/INF-gamma stimulated human MONO-MAC-6 cells at 16.54 uM preincubated for 1 hr followed by LPS/INF-gamma stimulation measured after 16 hrs. Format: functional, cell-based.
Data set [4] has as its system MONO-MAC-6. The experiment in a line: Inhibition of CCL1 mRNA expression in LPS/INF-gamma stimulated human MONO-MAC-6 cells at 16.54 uM preincubated for 1 hr followed by LPS/INF-gamma stimulation measured after 16 hrs. Format: functional, cell-based.
The subject of data set [5] is MONO-MAC-6. The experiment in a line: Inhibition of human THP1 cells derived IL-8 promoter dependent transcription activity expressed in LPS/INF-gamma stimulated human MONO-MAC-6 cells measured after 4 hrs by luciferase reporter gene assay. Format: functional, cell-based. The conditions noted are these: MONO-MAC-6, 4 h.
For data set [6], the system named is MONO-MAC-6. The experiment in a line: Inhibition of CXCL11 mRNA expression in LPS/INF-gamma stimulated human MONO-MAC-6 cells at 16.54 uM preincubated for 1 hr followed by LPS/INF-gamma stimulation measured after 16 hrs. Format: functional, cell-based.
The subject of data set [7] is MONO-MAC-6. The data set is described as follows: Inhibition of CCL3 mRNA expression in LPS/INF-gamma stimulated human MONO-MAC-6 cells at 16.54 uM preincubated for 1 hr followed by LPS/INF-gamma stimulation measured after 16 hrs. Format: functional, cell-based.
The nature of data set [8]: Effect on constitutive activity of EF-1alpha expressed in human MONO-MAC-6 cells up to 50 uM measured after 4 hrs by luciferase reporter gene assay. It counts as ADME, cell-based. The settings on record: mono-mac-6, 4 h.
Data set [9] can be described thus: Downregulation of CXCL10 mRNA expression in human MONO-MAC-6 cells at 16.54 uM preincubated for 1 hr followed by LPS/INF-gamma stimulation measured after 4 hrs by quantitative RT-PCR analysis. Format: functional, cell-based.
Data set [10] concerns MONO-MAC-6. The experiment in a line: Inhibition of CXCL1 mRNA expression in LPS/INF-gamma stimulated human MONO-MAC-6 cells at 16.54 uM preincubated for 1 hr followed by LPS/INF-gamma stimulation measured after 16 hrs. Format: functional, cell-based.
Data set [11] can be described thus: Cytotoxicity against human MONO-MAC-6 cells up to 50 uM measured after 24 hrs by XTT assay. The settings on record: mono-mac-6, 24 h. It counts as toxicity, cell-based. On the technique in general: Tetrazolium assays rely on reduction of a dye to a coloured formazan, in cell work by metabolically active cells.
The nature of data set [12]: Down regulation of CCL2 mRNA expression in LPS/INF-gamma stimulated human MONO-MAC-6 cells at 16.54 uM preincubated for 1 hr followed by LPS/INF-gamma stimulation measured after 4 hrs by quantitative RT-PCR analysis. Format: functional, cell-based.
Data set [13] is described as follows: Inhibition of NF-kappaB (unknown origin) expressed in LPS/INF-gamma-stimulated human MONO-MAC-6 cells measured after 4 hrs by luciferase reporter gene assay. It counts as cell-based. The conditions noted are these: MONO-MAC-6, 4 h.
Data set [14] has as its system MONO-MAC-6. The experiment in a line: Inhibition of TNF-alpha mRNA expression in LPS/INF-gamma stimulated human MONO-MAC-6 cells at 16.54 uM preincubated for 1 hr followed by LPS/INF-gamma stimulation measured after 16 hrs. It counts as functional, cell-based.
Data set [15] in a line: Down regulation of IL-8 mRNA expression in LPS/INF-gamma stimulated human MONO-MAC-6 cells at 16.54 uM preincubated for 1 hr followed by LPS/INF-gamma stimulation measured after 4 hrs by quantitative RT-PCR analysis. Format: functional, cell-based.
In data set [16] the test system is MONO-MAC-6. The experiment in a line: Inhibition of IL-23 mRNA expression in LPS/INF-gamma stimulated human MONO-MAC-6 cells at 16.54 uM preincubated for 1 hr followed by LPS/INF-gamma stimulation measured after 16 hrs. It counts as functional, cell-based.
The nature of data set [17]: Down regulation of COX-2 mRNA expression in LPS/INF-gamma stimulated human MONO-MAC-6 cells at 16.54 uM preincubated for 1 hr followed by LPS/INF-gamma stimulation measured after 4 hrs by quantitative RT-PCR analysis. It counts as functional, cell-based.
Data set [18] is described as follows: Down regulation of IL-6 mRNA expression in LPS/INF-gamma stimulated human MONO-MAC-6 cells at 16.54 uM preincubated for 1 hr followed by LPS/INF-gamma stimulation measured after 4 hrs by quantitative RT-PCR analysis. Format: functional, cell-based.
A short description of data set [19]: Down regulation of TNF-alpha mRNA expression in LPS/INF-gamma stimulated human MONO-MAC-6 cells at 16.54 uM preincubated for 1 hr followed by LPS/INF-gamma stimulation measured after 4 hrs by quantitative RT-PCR analysis. It counts as functional, cell-based.
Data set [20] is described as follows: Inhibition of IRF (unknown origin) expressed in LPS/INF-gamma-stimulated human MONO-MAC-6 cells assessed as reduction in ISRE dependent transcription activity measured after 4 hrs by luciferase reporter gene assay. It counts as cell-based. The conditions noted are these: MONO-MAC-6, 4 h.
The test system of data set [21] is MONO-MAC-6. The data set is described as follows: Inhibition of IL-6 mRNA expression in LPS/INF-gamma stimulated human MONO-MAC-6 cells at 16.54 uM preincubated for 1 hr followed by LPS/INF-gamma stimulation measured after 16 hrs. It counts as functional, cell-based.
Data set [22] has as its system MONO-MAC-6. The data set is described as follows: Inhibition of CXCL10 mRNA expression in LPS/INF-gamma stimulated human MONO-MAC-6 cells at 16.54 uM preincubated for 1 hr followed by LPS/INF-gamma stimulation measured after 16 hrs. It counts as functional, cell-based.

Activity calls are given as the source filed them. The rule behind the calls is not given here.

`C=C[C@H]1CC[C@]23C[C@@H]4[C@H](C)C(=O)[C@H]5O[C@]54[C@@]2(C)C[C@H](O)[C@]13C`: the Activity entry in data set [1], in data set [8] and in data set [11] was “Non-Toxic” each time. Moreover, the inhibition result in the data set on MONO-MAC-6 [2] was “Dose-dependent effect”. In addition, the inhibition entry with MONO-MAC-6 [3], in the data set with MONO-MAC-6 [4], with MONO-MAC-6 [6], in the data set with MONO-MAC-6 [7], with MONO-MAC-6 [10] and in the data set on MONO-MAC-6 [14] was “Active” each time. Besides, the inhibition entry with MONO-MAC-6 [16], in the data set with MONO-MAC-6 [21] and with MONO-MAC-6 [22] was “Active” in each case. Besides, the half-maximal inhibitory concentration (IC50) – broadly, the point on the concentration scale where inhibition reaches its midpoint – with MONO-MAC-6 [5] lay within 1.3 to 1.5 µM; in data set [13], 2.7 to 3 µM; in [20], 1 to 1.2 µM. The result in [9], in data set [12], in [15], in [17], in data set [18] and in data set [19] was Active.
